Patent US7476729B2, “Dbait and uses thereof” (Institut Curie, priority 2003, dated 2009)

Legend:
Ku complex = biological target: T1, Ku complex (Homo sapiens, UniProt P12956+P13010); test: Band-shift assay with Hep2 nuclear protein extracts; format: binding; conditions: for retarded bands in band-shift assay: 10 nM 32P radio-labelled Dbait, 0-320 ng/μL Hep2 nuclear proteins, 30° C., 10 minutes; for binding of Ku: Hep2 nuclear extract, band-shift
T1 construct: in the presence of nuclear protein extracts from Hep2 cells according to standard protocol; endogenous in cells; host or cells: Hep2 cells (nuclear protein extract)
Description: As the first step to dissect the mechanism of action of Dbait molecules, a series of band-shift assays were carried out with different ^32P radio-labelled Dbait molecules in the presence of nuclear protein extracts from Hep2 cells according to standard protocol. Typically, 10 nM ^32P radio-labelled Dbait molecules were incubated in the presence of various concentrations of nuclear proteins (0, 10, 20, 40, 80, 160, and 320 ng/μL) at 30° C. for 10 minutes in TBE buffer. Then the samples were loaded on a 5% acrylamide native gel. The electrophoresis was run at 95V for 2 hours at 4° C. The gel was dried and scanned by phosphorimager (Molecular Dynamics).
For 32-bp Dbait molecules, the intensity of the retarded band 1 increases and then decreases as the concentration of protein increases, while the intensity of the retarded band 2 increases as a function of the concentration of nuclear protein extracts.
It is likely that band 1 has one Ku70/80 complex bound to the 16 to 32-bp Dbait, whereas the band 2 has two Ku70/80 complexes bound to the 32-bp Dbait molecules. Control experiments performed with purified Ku proteins confirmed this interpretation.

[1] = tested on: radiation-enhanced illegitimate integration of a plasmid in Hela cells; test: Inhibition of radiation-enhanced illegitimate integration of exogenous DNA; format: cell-based, human; conditions: for radiation-enhanced illegitimate integration of plasmid (puromycin resistance): 2 μg Dbait, fractionated 4×0.5 Gy irradiation
Description: Exponentially growing cells in six-well plates were harvested and incubated with […] of complete DMEM containing a mixture of Dbait molecules and Superfect reagent (Qiagen, Courtaboeuf, France) in a ratio of 10 μl Superfect per μg DNA. After 5 h at 37° C. under standard conditions, the cells were washed with PBS and complete DMEM was added. Where indicated, cells were exposed to irradiation either in one session (10 Gy) 5 h after the beginning of transfection or in four sessions of 0.5 Gy administered with a ^137Cs unit (1 Gy/min) 3, 4, 5 and 6 h after the beginning of transfection and allowed to grow for two weeks. When plasmid integration was measured, 2 μg of plasmid was added to Dbait transfection and puromycin (1.7 μg/ml) was added to the growth medium 48 h after transfection. Plasmid transfection efficiency was estimated by analyzing 10,000 cells for GFP expression on a FACScan flow cytometer (FACSalibur, Beckton-Dickinson, USA).
Ionizing radiation is known to improve illegitimate integration of exogenous DNA, a process termed radiation-enhanced integration. Hela cell culture was used for this assay. Cells were transfected during 8 hours by 2 μg of a linear plasmid carrying the gene coding for neomycin resistance, and three different ratio of DNA/superfect (1:2, 1:5, 1:10). During transfection time, the cells were exposed to different irradiation protocols: no irradiation, one single irradiation of 1 Gy and 2 Gy, as well as a 2 Gy irradiation delivered by fractionated doses of 0.5 Gy every 2 hours (4×0.5 Gy). The integration of the plasmid was monitored by selection of Neo^R cells growing in a medium containing 0.6 mg/ml of G418. […] When 2 μg of Dbait32H (SEQ ID NO: 1) molecules were added to the transfection mix, the radiation-enhanced integration was abolished (FIG. 2.3).
Wortmann (Wort) and NU7026 (NU) which are known inhibitors of PI3K (including DNA-PK) were used as control.

[2] = tested on: p53 serine 15 phosphorylation in GMA32 cells; test: Western blot of p53 serine 15 phosphorylation in GMA32 cells; format: cell-based, Chinese hamster; conditions: GMA32, Dbait with lipofectamine, no irradiation or mitotic inhibitor
Description: Further experiment was carried out in order to look for evidence of DNA damage signaling. The protein p53 is a well known major protein in mediating DNA damage signaling and in coordinating appropriate responses (DNA repair, apoptosis, etc.) by changing its phosphorylation status. In particular, the phosphorylation of serine 15 residue is involved in the interaction with MDM2 protein which acts as a feed back control Thus, the phosphorylation status of the serine 15 of p53 was assessed by Western blot.
For Western blot analysis, cells were lysed in Laemmli buffer. Equal amounts of lysates were resolved in 12% polyacrylamide gels. Proteins were transferred to nitrocellulose membranes, which were blocked with 5% nonfat milk (1 hour) before overnight incubation with anti-p53Ser15 antibody (9284, Cell Signaling) diluted 500 folds in TBST buffer (10 mM Tris-HCl pH7.5, 150 mM NaCl, 0.1% Tween 20) containing 5% nonfat milk. Blots were then incubated with horseradish peroxidase-conjugated goat anti-rabbit IgG secondary antibodies (P0448, Dako) diluted 1/5000 in TBST. Protein-antibody complexes were detected by enhanced chemiluminescence (RPN2106 ECL, Amersham).

[3] = tested on: DNA end-joining reaction in the nuclear extracts of Hep2 cells; test: DNA end-joining assay in Hep2 nuclear extract; format: biochemical, human; conditions: for ligation of DNA fragments in cell-free assay: 2 h incubation with various Dbait
Description: DNA end-joining was monitored by incubating ^32P-labeled 605-bp linear DNA fragments with Hep2 nuclear extract in the presence of various Dbait molecules. Ligation products migrate as dimers, trimers or tetramers, starting 605 bp monomer.
Approximately 16% of the ^32P-labeled blunt linear duplex DNA molecules were ligated into dimers and trimers during the first 2 h of incubation. The amount of high molecular weight ligation products increased up to 30% of the total input DNA after 16 h. […] In most experiments, Dbait32H (SEQ ID NO: 1) was added simultaneously with the labeled DNA fragments to the nuclear extract.
Various Dbait molecules were tested for their effect on the cell-free assay by adding the molecules to nuclear extract and incubating for 2 h with the DNA fragments.
DNA-PK activity was monitored using the kit SignaTECT DNA-dependent Protein Kinase Assay System (Promega, Madison, USA). Increasing amounts of Hep2 nuclear extract (cleaned of endogenous DNA by DEAE-Sepharose filtration) were assayed in the presence of 250 nM Dbait. Extract, biotinylated peptide substrate and various amount of nuclear extract were incubated 5 minutes at 30° C. with (γ-^32P)ATP according to manufacturer indications. The biotinylated substrate was capture on streptavidine membrane, washed and counted in a scintillation counter. Percentage of phosphorylation is calculated by dividing the bound radioactivity by the total count of (γ-^32P)ATP per sample. Reactions (10 μl) were carried out in 60 mM KOAc, 100 μg/ml BSA, 0.5 mM Mg(Cl)2, 1 μl T4 DNA ligase 10× buffer (Promega, Madison, USA). Nuclear extract and Dbait were incubated 2 minutes before addition of ^32P-labeled DNA (10 ng). Samples were incubated various time at 37° C. before ligation being stopped by 20 mM EDTA and 1 mg/ml Proteinase K addition. Ligation products were analyzed by electrophoresis through 0.7% agarose gels followed by autoradiography and quantification by phosphorimaging.

T1 sequence (P12956 whole entry): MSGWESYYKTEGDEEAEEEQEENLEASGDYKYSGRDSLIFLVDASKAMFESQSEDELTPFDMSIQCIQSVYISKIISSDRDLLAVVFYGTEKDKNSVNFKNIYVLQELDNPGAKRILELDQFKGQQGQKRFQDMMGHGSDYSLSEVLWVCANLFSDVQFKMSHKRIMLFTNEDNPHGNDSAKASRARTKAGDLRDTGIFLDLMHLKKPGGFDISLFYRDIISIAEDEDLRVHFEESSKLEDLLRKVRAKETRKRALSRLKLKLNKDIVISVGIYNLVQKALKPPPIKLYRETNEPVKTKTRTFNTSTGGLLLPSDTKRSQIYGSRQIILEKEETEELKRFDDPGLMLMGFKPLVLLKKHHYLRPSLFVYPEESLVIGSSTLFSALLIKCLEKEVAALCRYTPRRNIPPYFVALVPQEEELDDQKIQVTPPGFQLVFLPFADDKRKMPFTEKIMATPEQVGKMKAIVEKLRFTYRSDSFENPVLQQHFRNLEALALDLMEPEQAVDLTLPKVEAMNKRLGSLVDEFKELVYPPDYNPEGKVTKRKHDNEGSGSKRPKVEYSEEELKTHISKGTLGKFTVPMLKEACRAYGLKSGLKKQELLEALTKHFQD
T1 sequence (P13010 whole entry): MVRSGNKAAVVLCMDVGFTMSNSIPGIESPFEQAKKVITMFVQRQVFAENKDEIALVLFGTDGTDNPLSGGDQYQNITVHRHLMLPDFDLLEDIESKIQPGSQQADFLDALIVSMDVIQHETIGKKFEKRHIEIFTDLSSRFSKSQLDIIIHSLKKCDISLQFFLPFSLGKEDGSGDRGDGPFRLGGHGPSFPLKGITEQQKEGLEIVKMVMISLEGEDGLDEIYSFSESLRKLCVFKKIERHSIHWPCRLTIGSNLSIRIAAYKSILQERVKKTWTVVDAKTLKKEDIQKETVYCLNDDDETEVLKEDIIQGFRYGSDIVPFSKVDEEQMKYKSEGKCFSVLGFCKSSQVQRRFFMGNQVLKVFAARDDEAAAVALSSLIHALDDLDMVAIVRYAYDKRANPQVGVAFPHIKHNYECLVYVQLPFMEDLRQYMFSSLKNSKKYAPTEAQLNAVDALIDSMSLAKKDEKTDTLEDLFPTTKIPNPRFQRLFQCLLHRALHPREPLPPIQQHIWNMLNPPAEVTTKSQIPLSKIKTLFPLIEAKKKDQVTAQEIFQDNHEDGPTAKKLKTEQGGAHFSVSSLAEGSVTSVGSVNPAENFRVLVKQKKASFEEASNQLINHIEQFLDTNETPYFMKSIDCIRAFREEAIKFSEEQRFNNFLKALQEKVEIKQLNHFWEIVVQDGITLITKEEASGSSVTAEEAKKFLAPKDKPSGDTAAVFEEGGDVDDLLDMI

| Substance | retarded bands in band-shift assay (Ku complex) | radiation-enhanced illegitimate integration of plasmid (puromycin resistance) [1] | radiation-enhanced integration of linear plasmid (neomycin resistance) ([1]; Hela, 2 μg Dbait added to transfection mix, 4×0.5 Gy) | phosphorylation of p53 serine 15 [2] | DNA end-joining (ligation) ([3]; Dbait added 30 min after the nuclear extract (data not shown)) | DNA end-joining (ligation of 32P-labeled linear DNA fragments) ([3]; Dbait added simultaneously with fragments, 100-fold molar excess) | DNA end-joining (ligation) ([3]; Dbait incubated with the extract for 30 min before addition of fragments) | ligation of DNA fragments in cell-free assay [3] | binding of Ku (Ku complex) |
| --- | --- | --- | --- | --- | --- | --- | --- | --- | --- |
| Dbait32H: hairpin double strand DNA with a stem of 32-bp, hexaethyleneglycol linker, phosphorothioate at the free blunt end (DNA ACGCACGGGTGTTGGGTCGTTTGTTCGGATCT; DNA, backbone not given here; hairpin, hexaethyleneglycol loop, 3-bp phosphorothioate at free blunt end) | two retarded band | capable of inhibiting | abolished | highly phosphorylated | no inhibition of the ligation | strongly inhibited | extent of inhibition was similar | – | – |
| Dbait32ss: 32-nt single strand DNA (SEQ ID NO: 1) (DNA ACGCACGGGTGTTGGGTCGTTTGTTCGGATCT; DNA, backbone not given here) | – | not effective | – | Neither the shortest Dbait8H (SEQ ID NO: 4) nor single strand Dbaut32ss (SEQ ID NO: 1) molecules were able to induced significant phosphorylation | – | – | – | largely unaffected | – |
| Dbait16H: hairpin double strand DNA with a stem of 16-bp (DNA ACGCACGGGTGTTGGG; DNA, backbone not given here; hairpin DNA with hexaethyleneglycol loop, 3-bp phosphorothioate at free blunt end) | One retarded band | not effective | – | moderate phosphorylation | – | – | – | inhibited the ligation as efficiently as Dbait32H | bound only one Ku dimer |
| Dbait8H: hairpin double strand DNA with a stem of 8-bp (DNA ACGCACGG; DNA, backbone not given here; hairpin, hexaethyleneglycol loop, 3-bp phosphorothioate at free blunt end) | – | not effective | – | Neither the shortest Dbait8H (SEQ ID NO: 4) nor single strand Dbaut32ss (SEQ ID NO: 1) molecules were able to induced significant phosphorylation | – | – | – | largely unaffected | dID NO:t bind Ku |
